Entries after “also recorded” stand apart in the source; their conditions may differ.
Target: T1, hASIC3 (Homo sapiens, UniProt Q9UHC3)
T1 sequence (Q9UHC3 1-531): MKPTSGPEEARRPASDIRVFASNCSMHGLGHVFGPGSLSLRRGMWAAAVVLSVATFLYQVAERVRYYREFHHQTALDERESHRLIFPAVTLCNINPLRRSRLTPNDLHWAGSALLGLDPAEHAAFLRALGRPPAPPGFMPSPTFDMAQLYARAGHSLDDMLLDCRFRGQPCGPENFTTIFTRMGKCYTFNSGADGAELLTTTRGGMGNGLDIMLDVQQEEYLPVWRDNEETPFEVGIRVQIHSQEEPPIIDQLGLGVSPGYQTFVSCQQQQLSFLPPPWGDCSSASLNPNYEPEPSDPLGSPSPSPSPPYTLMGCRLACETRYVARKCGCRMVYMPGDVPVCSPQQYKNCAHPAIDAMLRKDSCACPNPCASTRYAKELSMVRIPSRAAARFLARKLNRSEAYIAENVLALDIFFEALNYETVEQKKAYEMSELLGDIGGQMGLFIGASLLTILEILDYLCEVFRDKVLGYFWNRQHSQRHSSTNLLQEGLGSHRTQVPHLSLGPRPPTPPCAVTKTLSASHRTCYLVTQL
Test: Whole-cell patch clamp of acid-evoked currents in CHO cells transfected with hASIC3
Assay type: cell-based
Parameters: expressed in transfected cells
Method: All experiments are performed at room temperature (20-25° C.) in voltage clamp using conventional whole cell patch clamp methods (Neher, E., et al. (1978) Pfluegers Arch 375:219-228).
Coverslips with the cells are transferred to a 15 μl experimental chamber mounted on the stage of an inverted microscope (IMT-2, Olympus) supplied with Nomarski optics. Cells are continuously superfused with extracellular saline at a rate of 2.5 ml/min. After giga-seal formation, the whole cell configuration is attained by suction. The cells are held at a holding voltage of −60 mV and at the start of each experiment the current is continuously measured for 45 s to ensure a stable baseline. […] Current amplitudes are measured at the peak of the responses, and effect of the compounds is calculated as the amplitude at compound equilibrium divided by the amplitude of the current evoked by the pulse just before the compound was included. […]
FIG. 3 compares the selectivity of Compound R for human ASIC1a versus human ASIC3, both stably transfected in CHO cells. […] FIG. 3C compares the dose-response relationship of Compound R on hASIC1a and hASIC3 [determined by measuring the area under the curve of the response (total charge transfer) and normalized to the control response].

- Biological Data (IC50 uM) h3 (PC) (patch clamp (PC), Table A): inactive
Compound: Cc1cc(OC2CCN(Cc3ccccc3)CC2)c2ccccc2n1 [Compound R, 4-(1-benzyl-piperidin-4-yloxy)-2-methyl-quinoline]
- effect on acid evoked hASIC3 current amplitude (FIG. 3B) (30 μM, CHO cells): failed to reduce the amplitude of the current; also recorded: failed to inhibit
